Literature values, collected in the CATMoS acute toxicity set (Mansouri et al. 2021).

Test: rat acute oral toxicity
Conditions: in vivo

First: O=[N+]([O-])c1c(Br)ccc2[nH]c(C(F)(F)F)nc12
Second: CCOP(=S)(OCC)OP(=S)(OCC)OCC
The LD50 of the first is 2.7-fold higher: 13.5 mg/kg for the first, 5 mg/kg for the second.

Compared with CCCOC(=O)CCC, CN(C)c1ccc(C=C2C(=O)N=C3c4ccccc4N=CN23)cc1 is 42-fold lower in LD50: 15000 mg/kg for the first, 355 mg/kg for the second.

Compared with CC(C)NC(=S)NC(C)C, C=COP(=O)(OCC)OC(CCl)c1cc(Cl)c(Cl)cc1Cl (stereo not given) is 2.4-fold higher in LD50: 450 mg/kg for the first, 1100 mg/kg for the second.

Going from Cc1ccc(Cl)cc1N to CC[N+](C)(C)CCC(C(N)=O)(c1ccccc1)c1ccccc1, the LD50 rises from 464 mg/kg to 1350 mg/kg (2.9-fold).

Going from CCOC(=O)C1OC1(C)c1ccccc1 (stereo not given) to O=C1CSc2ncccc2N1, the LD50 falls from 5470 mg/kg to 1050 mg/kg (5.2-fold).

CCCOC(C1=NCCCN1)c1ccccc1 (stereo not given) and CC(=O)c1c(=O)cc(C)oc1=O are within 1.5-fold of each other in LD50: 625 mg/kg for the first, 706 mg/kg for the second.

First: CCCC(C)C(=O)Nc1ccc(C)c(Cl)c1 (stereo not given)
Second: CC1(C)CNC(=NN=C(/C=C/c2ccc(C(F)(F)F)cc2)/C=C/c2ccc(C(F)(F)F)cc2)NC1
The LD50 of the first is 4.5-fold higher: 5100 mg/kg for the first, 1130 mg/kg for the second.

CC1(C)SCN(C(=O)C2(Oc3ccc(Cl)cc3)CCCCC2)C1C(=O)O (stereo not given) and COC(=O)CC(=O)OC are within 1.5-fold of each other in LD50: 4350 mg/kg for the first, 5330 mg/kg for the second.

CC(C)(C)NCC(O)c1ccccc1Cl (stereo not given) and Cc1cccc(C)n1 are within 1.5-fold of each other in LD50: 560 mg/kg for the first, 400 mg/kg for the second.

CCCC(Cn1cncn1)c1ccc(Cl)cc1Cl (stereo not given) and Cc1cccc(C#N)c1 are within 1.5-fold of each other in LD50: 2120 mg/kg for the first, 3000 mg/kg for the second.

Compared with CC(O)c1cccc(N)c1 (stereo not given), CCOCc1cnc(C)nc1N is 2.1-fold lower in LD50: 3100 mg/kg for the first, 1450 mg/kg for the second.

CCP(=S)(CC)Oc1cc(Cl)c(Cl)cc1Cl and FC(F)(F)c1nc2ccc(I)cc2[nH]1 are within 1.5-fold of each other in LD50: 100 mg/kg for the first, 96 mg/kg for the second.

Compared with CC1=CCC2CC1(S)C2(C)C (stereo not given), CCCCCCOCCO is 3.6-fold lower in LD50: 3000 mg/kg for the first, 830 mg/kg for the second.

Going from Cc1ccc(C)n1Nc1ccc(N2CCOCC2)nn1 to O=C(Nc1cc(F)ccc1F)NC1CC1, the LD50 falls from 2250 mg/kg to 152 mg/kg (15-fold).

Going from C=CCSP(=O)(NC(=O)CC)OC (stereo not given) to c1ccc(Cc2ccccc2)cc1, the LD50 rises from 125 mg/kg to 2250 mg/kg (18-fold).

Going from C=CCOC(=O)c1ccc(C(=O)OCC=C)c(C(=O)OCC=C)c1 to CCCC/C=C\CCCCCCO, the LD50 rises from 2400 mg/kg to 11700 mg/kg (4.9-fold).

First: CCC1(NC(N)=O)CCCC1
Second: S=C1NCCNC(=S)S1
The LD50 of the first is 4-fold higher: 950 mg/kg for the first, 240 mg/kg for the second.

Going from O=C(O)CCC(CC(=O)O)(C(=O)O)P(=O)(O)O (stereo not given) to O=C(O)/C=C\Cl, the LD50 falls from 4000 mg/kg to 320 mg/kg (12-fold).

Going from N#CC(N=Nc1ccc(C(F)(F)F)cc1)=NNc1ccc(C(F)(F)F)cc1 to O=S(=O)(O)c1ccccc1O, the LD50 rises from 613 mg/kg to 1900 mg/kg (3.1-fold).

Compared with CCOP(=S)(OCC)OC(C)=CC(=O)OC, CCN(CC)CCC1(c2ccccc2)C(=O)Oc2ccccc21 (stereo not given) is 4300-fold higher in LD50: 0.14 mg/kg for the first, 600 mg/kg for the second.

First: COc1c(OP(=O)(OC(C)C)OC(C)C)cnn(C)c1=O
Second: CN(C)c1ccc(C(O)(c2ccc(N(C)C)cc2)c2ccc(N(C)C)cc2)cc1
The LD50 of the first is 410-fold lower: 1.9 mg/kg for the first, 770 mg/kg for the second.

Compared with O=S(=O)(SC(Cl)(Cl)Cl)C(Cl)Cl, O=CNc1ccc(Cl)cc1 is 4.8-fold lower in LD50: 3620 mg/kg for the first, 750 mg/kg for the second.

First: CC(C(=O)O)c1ccc2c(c1)OCc1cc(Cl)ccc1C2=O (stereo not given)
Second: CCN=C1SC(=NOC(=O)NC)C(C)(C)S1
The LD50 of the first is 1.9-fold higher: 12 mg/kg for the first, 6.3 mg/kg for the second.

Going from CCOC1CCC=CO1 (stereo not given) to CNC(=O)ON=C1CS(=O)CCS1 (stereo not given), the LD50 falls from 6160 mg/kg to 12.3 mg/kg (500-fold).

First: CCS(=O)(=O)Cl
Second: N#CC(C#N)=C1SCS1
The LD50 of the first is 4.8-fold higher: 360 mg/kg for the first, 75 mg/kg for the second.

Going from NC(=O)CBr to CC[N+]1(C)[C@@H]2C[C@@H](OC(=O)[C@H](CO)c3ccccc3)C[C@H]1[C@@H]1O[C@@H]12 (stereo not given in full), the LD50 rises from 100 mg/kg to 2250 mg/kg (22-fold).

Going from O=C1CCCC1 to CCOP(=S)(OCC)Oc1cc(Cl)c(I)cc1Cl, the LD50 falls from 2690 mg/kg to 140 mg/kg (19-fold).

For CS(=O)c1ccc(Cl)cc1 (stereo not given), the LD50 is listed as 463 mg/kg.
